Patent publication US8524222B2, “Bacillus isolates and methods of their use to protect against plant pathogens and virus transmission” (Montana State University, priority 2006, dated 2013)
Where “and” joins values, the source holds several entries; their conditions need not be identical. Equal values may be shown once.

Experiments:
[1] = tested on: Fusarium culmorum isolate 2279; parameters: species or system spring wheat; conditions: in vivo
NPR1 = tested on: NPR1; parameters: species or system sugar beet; conditions: in vivo
Cercospora beticola [2] = tested on: Cercospora beticola; parameters: species or system sugar beet; conditions: in vivo
Chitinase [3] = test: Chitinase specific activity of apoplastic protein by plate assay, six days post treatment; assay type: in vivo, sugar beet; conditions: distal leaves
Experimental: (§1) One leaf per replicate was collected for each treatment and immediately placed in buffer (150 mm NaCl, 25 mm MES, pH 6-2). Apoplast extractions were collected as described by Klement having substituted buffer (150 mM NaCl, 25 mm MES. pH 6.2) for water.
Chitinase Specific Activity Determination by Plate Assay Sodium phosphate buffer (pH 5.0, 0.01 M) containing 1 agarose and 0.1% glycol chitin was added to a 9 cm diameter glass petri dish. Wells, 3 mm diameter, were excised from the agarose (three per sample for each of the three replicates per treatment). Dilutions of apoplastic protein (0.7, 0.35, and 0.23 ug) and chitinase standards (chitinase from Streptomycesgriseus Sigma) were loaded into the wells. The plate was incubated at 37° C. for 24 h. Following the incubation, 50 ml of 500 mMTris-HCl (pH 8.9) containing 0.01% fluorescent brightener was added to the plate and incubated for 10 min. The plate was then quickly rinsed 3× with water, flooded with water, and destained overnight in the dark. Non-fluorescent lytic regions on a fluorescent background were measured while the plate was on an uv light source. Specific activity (mg of N-acetyl-n-glucosamine released /hr /mg of apoplastic protein) was determined by comparison of the diameters of the lytic regions for the standards and the lytic regions for the apoplastic protein samples [55]. Results

B-1,3-glucanase [4] = test: Aniline blue plate assay for B-glucanase activity (screening); assay type: in vivo, sugar beet; conditions: cumulative results, 6 days after treatment
Experimental: (§2) The leaf penultimate to the oldest true leaf was treated with one of the Bacillus strains. […] The plants were kept at 28+/−2° C. for 6 days at which time the apoplastic proteins were collected as described by Klement (1965), with the following modification: a buffer containing 150 mM NaCl and 25 mM MES, pH 6.2, was substituted for distilled water. The proteins were quantified by Bradford reagent (Bio-Red) using bovine serum albumin as standards and frozen at −80° C. until analyzed.
Apoplastic protein (0.75, 0.50, and 0.25 ug for each sample in replicates of 3) was added to 3-mm diameter wells in a 0.5% agarose gel containing 0.005% aniline blue (MCB) and 0.5m.1/ml laminarin (from Laminaria digitata, Sigma) in a 14 cm diameter glass petri plate, along with laminarinase (Penicillium spp., Sigma) standards (2×10.5−2×10^−3 units of lamina˜inase). The plates were incubated at 30° C. for 18-24 hours. Following Incubation, the pink lytic zones on a blue background were measured while the plate was on a white light source. Specific activity (ug of glucose released/min/mg of apoplastic protein) was determined by comparison of the lytic zone diameter of the standards and the apoplastic samples.

Chitinase [5] = test: Glycol chitin plate assay for chitinase activity (screening); assay type: in vivo, sugar beet; conditions: cumulative results, 6 days after treatment
Experimental: as §2
Apoplastic protein (0.009, 0.006, and 0.005 ug for each sample in replicates of 3) was added to wells in a 1% agarose gel containing 0.01% glycol chitin in a 14 cm diameter glass petri plate, along with chitinase standards (Streptomyces griseus, Sigma). The plates were incubated at 37° C. for 24 hours. Following incubation. 50 ml of 500 mM Tris-HCl (pH 8.9) containing 0.01°/fluorescent brightener was added to the plate for 10 min. The plate was then rinsed three times with distilled water, flooded with water, and allowed to destain in the dark for 2-24 hours. The non-fluorescent lytic zones on a fluorescent background were measured while the plate was on a 302 nm UV light source. Specific activity (mg of N-acetyl-D-glucosamine released/hr/mg of apoplastic protein) was determined by comparison of the lyric zone diameter of the standards and the apoplastic samples (Velasquez. 2002).

Cercospora beticola [6] = tested on: Cercospora beticola; parameters: species or system sugar beet; conditions: in vivo; remark: listed apart in the source
B-1,3-glucanase [7] = test: B-1,3-glucanase specific activity of apoplastic protein (glucose release from laminarin); assay type: in vivo, sugar beet; conditions: distal leaves, six days post treatment
Experimental: as §1
The specific activity of sugar beet apoplastic B-1,3-glucanase was determined by measuring the release of glucose units from laminarin. Sodium acetate buffer (100 IJI, pH 5.0, 100 mM) containing 0.5% laminarin and 0.5 ug-2.0 ug apoplastic protein (plants per treatment replicated 3 times) was incubated at 3rc for 30-60 min. Following incubation, 900 ul of water and 1 ml of alkaline copper reagent was added to each 2 reaction. The tubes were then placed into a boiling water bath for 10 min. After cooling on ice, 1 ml arsenomolybdate color reagent was added to each reaction. Once the bubbling had subsided, 10 ml of water were added to each tube before reading the A660.

salicylic acid = tested on: salicylic acid; parameters: species or system sugar beet; conditions: in vivo
[8] = tested on: chitinase and B-1,3-glucanase; test: Combined glycol chitin and aniline blue plate assays as predictor of SAR induction; assay type: in vivo, sugar beet; parameters: key: ✓: correctly identified all SAR-inducing isolates, indicated by check marks in Table 5; conditions: identified as SAR-inducer by increased activity of both defense proteins
Text: There may be circumstances where the occurrence of chitinase and B-glucanase alone is not correlated with disease control (Punja, 2001), especially with fungal pathogens, since the enzymes function synergistically (Melchers and Stuiver, 2000). Therefore examination of the defense proteins together provides a more accurate prediction of disease control capability. Based on the assumption that increased activity for both defense proteins indicated SAR-inducing capacity, combined results from the glycol chitin and aniline blue plate assays correctly identified all SAR-inducing isolates, indicated by check marks in Table 5.

[9] = tested on: hydrogen peroxide production; test: Phenol red oxidation assay for biphasic hydrogen peroxide production in protoplasts and leaf disks; assay type: cell-based, sugar beet
Experimental: Sugar beet protoplasts were isolated from sugar beet leaves to provide a medium to measure hydrogen peroxide production. Sugar beet leaves were gently brushed on the adaxial and abaxial surfaces with a 50 ft bristle brush to create small abrasions. The leaves were then cut into 1 cm strips and vacuum infiltrated for 5 min with 0.7 M sucrose containing 3.8% CaCL2, CPW salts (Frearson et al, 1973), 1.2% cellulase (Sigma), and 0.4% macerozyme (ICN Biomedicals). The infiltrated leaves were incubated in the 0.7M sucrose-salt and enzyme solution for 24-48 hours in the dark. […]
To determine if the Bacillus strains elicited biphasic hydrogen peroxide production in sugar beet, phenol red oxidation assays were performed according to Pick and Keisari (1980). […] The amount of hydrogen peroxide produced from protoplasts in response to treatment with a Bacillus control agent was calculated as follows: amount of hydrogen peroxide produced in Bacillus protoplast reactions—(amount of hydrogen peroxide produced in protoplast only reactions+amount of hydrogen peroxide produced in Bacillus-only reaction). The amount of hydrogen peroxide produced by the leaf disks in response to Bacillus treatment was calculated as follows: amount of hydrogen peroxide produced by Bacillus-treated leaf disks-amount of hydrogen peroxide produced by leaf disks only reaction.

Peroxidase = test: Apoplastic peroxidase activity (guaiacol reagent); assay type: in vivo, sugar beet; conditions: distal leaves, six days post treatment
Experimental: The concentration of protein as adjusted to give a change in absorbance units greater than 0.100, but less than 0.200, per minute. Specific activity was expressed as the increase inabsorbance (A470) over time (2 min) per mg of protein, as determined using Bradford reagent (BioRAD).

Botrytis cinerea = tested on: Botrytis cinerea; parameters: species or system Arabidopsis thaliana; conditions: in vivo
C. beticola = test: Field studies of Cercospora leaf spot control, Sidney, Mont.; parameters: species or system sugar beet; conditions: in vivo
Experimental: Field studies were conducted at the Eastern Agricultural Research Center in Sidney, Mont. from 1996 through 2003. Sugar beet variety ‘Beta 1996’ was planted the first year, VDH 66140 was planted the second year, HH88 the third year, KW2262 the fourth year and Beta 2185 the fifth, sixth, and seventh years. All cultivars were equally susceptible to C. beticola infection (BetaSeed, Shakopee, Minn., U.S.A.). […] In the last two years, freshly grown, washed cells were harvested from a 24 h tryptic soy broth culture grown at room temperature and prepared as described above, and applied to the plants. Fungicide treatments included triphenyltin hydroxide (TPTFI, SuperTin, Griffin L.L.C.), propiconazole (Tilt, Syngenta Crop Protection, Inc) and tetraconazole (Eminent, Sipeam Agro USA Inc.) that were applied at 390, 253 and 876 g ai ha^−1, respectively. All treatments were applied at 1761 ha^−1 using a CO2 backpack sprayer with a 4-nozzle boom starting at disease onset and continued at 14 day intervals for a total of four sprays. Plots were arranged “in a randomized complete block design. with six replicates per treatment. […] Area under the disease progress curve (AUDPC) was calculated for treated and untreated plants and percent disease control was determined as follows: 1-([…])*100. […]

Compound: CSC(=O)c1cccc2nnsc12 [ASM, Acibenzolar-S-methyl]
- Disease Severity Index (%) [1]: 60.43% and 46.88% and 42.73 b % and 48.97% and 37.53 ab % and 47.31 b %
- activation of NPR1 (NPR1): activated NPR1 by 48 hours
- disease reduction (Cercospora beticola [2]): 50%
- Specific Activity Chitinase (Chitinase [3]): 1.26 milligrams of N-acetyl-n-gluco
- Aniline blue plates (B-1,3-glucanase [4]): 5.70a
- Glycol chitin plates (Chitinase [5]): 3.09hed
- % Reduction at 21 DPC (Cercospora beticola [6]): 63.6% and 64.6%
- Specific Activity Beta-glycanase (B-1,3-glucanase [7]): 198.6 micrograms of glucose released per minute per milligram of apoplastic protein
- total SA levels over a 48 hour sampling scheme versus time zero (salicylic acid): lack of SA accumulation
- Aniline blue and glycol chitin plates [8]: ✓
- biphasic hydrogen peroxide production [9]: did not induce biphasic hydrogen peroxide production
- Specific Activity Peroxidase (Peroxidase): 71.4 changes in absorbance (470 nm) per minute per milligram of apoplastic protein

Compound: C=CCOC1=NS(=O)(=O)c2ccccc21 [PBZ, Probenazole]
- % disease reduction in comparison to distilled water (Botrytis cinerea): 41.9 c %

Compound: O=C(O)c1ccccc1O [SA, salicylic acid]
- activation of NPR1 (NPR1): activated NPR1 by 48 hours

Compound: [OH][Sn]([c]1ccccc1)([c]1ccccc1)[c]1ccccc1 [TPTH, triphenyltin hydroxide]
- Disease Reduction by Year (C. beticola): 81% and 90% and 94% and 72% and 88^d %

Compound: O=P(O)(O)CCCl [ethephon, 2-chloroethylphosphonic acid]
- % disease reduction in comparison to distilled water (Botrytis cinerea): 28.1 b %

Compound: CC/C=C\CC1C(=O)CCC1CC(=O)OC (centres unmarked) [methyl jasmonate]
- % disease reduction in comparison to distilled water (Botrytis cinerea): 49.9 d %
